Laboratory results taken from patent publication EP1351565B1, “CHEMICAL INHIBITORS OF MISMATCH REPAIR” (Morphotek, Inc., priority 2001, dated 2002).

Assays:
[1] = tested on: Pichia yeast containing a pGUS-OF reporter system; experiment: Pichia yeast pGUS-OF reporter assay for MMR blockade; format: cell-based; details: 300 µM, 48 hours
Protocol: Briefly, the GUS-OF and GUS-IF gene, which contains a polyA repeat at the N-terminus of the protein was subcloned from the pCR=IF-GUS and pCR-OF-GUS plasmids into the EcoRI site of the pGP vector, which is a consitutively expressed yeast vector containing a zeocin resistance gene as selectable marker. pGP-GUS-IF and pGP-GUS-OF vectors were electroporated into competent Pichia cells using standard methods known by those skilled in the art. Cells were plated on YPD agar (10g/L yeast extract; 20 g/L peptone; 2% glucose; 1.5% bactoagar) plates containing 100 µg/ml zeocin. Recombinant yeast are then analyzed for GUS expression/function by replica plating on YPD agar plates containing 100 µg/ml zeocin plus 1 mg/ml X-glu (5-bromo-4-chloro-3-indoyl-beta-D-glucuronide sodium salt) and grown at 30°C for 16 hours. […] None of the yeast containing the GUS-OF turned blue in the presence of the X-glu substrate under normal growth conditions.
After incubation, yeast were plated on YPD-ZEO-X-GLU plates and grown at 30°C for 16 hours.

Arabidopsis thaliana [2] = experiment: Toxicity curve of DMA and EMS on Arabidopsis seeds (root and shoot formation); format: in vivo
Protocol: Briefly, AT seeds were sterilized with straight commercial bleach and 100 seeds were plated in 100mm Murashige and Skoog (MS) phytagar (Life Technology) plates with increasing amounts of DMA (ranging from 100µm to 50mM). A similar amount of seeds were plated on MS phytagar only or in MS phytagar with increasing amounts of EMS (100µM to 50mM), a mutagen commonly used to mutate AT seeds (McCallum, C.M.et al. (2000) Nat. Biotechnol.18:455-457). Plates were grown in a temperature-controlled, fluorescent-lighted humidifier (Percival Growth Chamber) for 10 days. After 10 days, seeds were counted to determine toxicity levels for each compound. […] Plantlets that were identical to untreated seeds were scored healthy. Seeds with stunted root or shoot formation were scored intermediate (inter). Non-germinated seeds were scored dead. Table 2: Toxicity curve of DMA and EMS on Arabidopsis (per […])

H36pCAR-OF cell line = experiment: H36pCAR-OF screening assay (MMR-sensitive β-galactosidase reporter); format: cell-based, murine
[3] = rat-liver microsomal preparations; cited from earlier work
human HEK293 cells [4] = experiment: Microsatellite instability of endogenous BAT26 marker in 293 cells; format: cell-based; details: 250 µM DMA
Protocol: Briefly, […] were grown in control medium or 250 µM DMA, a concentration that is found to be non-toxic, for 14 to 17 days. Cells are then harvested and genomic DNA isolated using the salting out method (Nicolaides, N.C. et al. (1991) Mol. Cell. Biol. 11 :6166-6176.).
Various amounts of test DNAs from HCT116 (a human colon epithelial cell line) and 293 were first used to determine the sensitivity of our microsatellite test. The BAT26 alleles are known to be heterogeneous between these two cell lines and the products migrate at different molecular weights (Nicolaides personal observation). DNAs were diluted by limiting dilution to determine the level of sensitivity of the assay. DNAs were PCR amplified using the BAT26F: 5'-[…]-3' (SEQ ID NO:43) and the BAT26R: 5'-[…]-3' (SEQ ID NO:44) primers in buffers as described (Nicolaides, N.C. et al. (1995) Genomics 30:195-206). Briefly 1 pg to 100 ngs of DNA were amplified using the following conditions: 94°C for 30 sec, 58°C for 30 sec, 72°C for 30 sec for 30 cycles. […]
To measure for microsatellite stability in 293 cells grown with or without DMA, 0.1 ngs of DNA from DMA-treated or control 293 cells were amplified using the reaction conditions above. […] Fifty bacterial colonies were analyzed for BAT26 structure by directly adding an aliquot of live bacteria to the PCR mix. […]

human HEK293 cells [5] = experiment: Toxicity in HEK293 cells; format: cell-based; details: 250 µM, 293 cells
Arabidopsis thaliana [6] = experiment: New phenotypes in offspring of chemically treated Arabidopsis plants; format: in vivo
Protocol: Next, 50 seeds were plated in two 150mm dishes containing 2mM DMA, 250 µM EMS or no drug. Seeds were grown for 10 days and then 10 plants from each plate were transferred to soil. All plants appeared to be similar in color and height. Plants were grown at room temperature with daily cycles of 18 hr light and 6 hr dark. After 45 days seeds are harvested from siliques and stored in a desiccator at 4°C for 72 hours. Seeds are then sterilized and 100 seeds from each plant is sown directly into water-saturated soil and grown at room temperature with daily cycles of 18 hr light and 6 hr dark. […] These 7 altered plants were light green in color and appeared to grow slower. […] DMA-exposed plants produced offspring that were yellow in appearance in contrast to dark green, which is always found in wild-type plants. In addition, the yellow plants were also shorter. After 30 days, most wild-type plants produced flowers and siliques, while the 7 mutants just began flowering. After 45 days, control plants were harvested while mutant plants were harvested 10 to 15 days later.

[7] = at high concentrations; cited from earlier work
[8] = tested on: immortalized human breast epithelial cells; details: cited from earlier work
MMR activity = details: in vitro assays; cited from earlier work
MMR defective cell lines = details: cited from earlier work
[9] = concentration 0.5 (mM), 10 days
[10] = concentration 1.0 (mM), 10 days
[11] = concentration 2.5 (mM), 10 days
[12] = concentration 5.0 (mM), 10 days
[13] = concentration 12.5 (mM), 10 days
[14] = Arabidopsis thaliana, in vivo, 10 days, 0.1 mM
[15] = Arabidopsis thaliana, in vivo, 10 days, 0.5 mM
[16] = Arabidopsis thaliana, in vivo, 10 days, 1 mM
[17] = Arabidopsis thaliana, in vivo, 10 days, 2.5 mM
[18] = Arabidopsis thaliana, in vivo, 10 days, 5 mM
[19] = Arabidopsis thaliana, in vivo, 10 days, 10 mM
[20] = Arabidopsis thaliana, in vivo, 10 days, 12.5 mM
[21] = Arabidopsis thaliana, in vivo, 10 days, 25 mM
[22] = Arabidopsis thaliana, in vivo, 10 days, 50 mM

## Cc1c2ccccc2c(C)c2ccccc12 [DMA, 9,10-dimethylanthracene]
[1]
  blue subclones (GUS activity) on YPD-ZEO-X-GLU plates: a subset of yeast expressing GUS-OF contain blue subclones
Arabidopsis thaliana [2]; concentration 0.1 (mM), 10 days, non-germinated seeds scored dead
  Dead: 0 per 100 seeds
Arabidopsis thaliana [2]; concentration 0.1 (mM), 10 days, stunted root or shoot formation scored intermediate
  Inter: 0 per 100 seeds
Arabidopsis thaliana [2]; concentration 0.1 (no unit in head; mM), MS phytagar, 10 days, identical to untreated seeds
  Healthy: 94 per 100 seeds
Arabidopsis thaliana [2]; [9]
  Dead: 0 per 100 seeds
  Inter: 0 per 100 seeds
Arabidopsis thaliana [2]; concentration 0.5 (mM), MS phytagar, 10 days
  Healthy: 99 per 100 seeds
Arabidopsis thaliana [2]; [10]
  Dead: 0 per 100 seeds
  Inter: 0 per 100 seeds
Arabidopsis thaliana [2]; concentration 1.0 (mM), MS phytagar, 10 days
  Healthy: 99 per 100 seeds
Arabidopsis thaliana [2]; [11]
  Dead: 0 per 100 seeds
  Inter: 20 per 100 seeds
Arabidopsis thaliana [2]; concentration 2.5 (mM), MS phytagar, 10 days
  Healthy: 80 per 100 seeds
Arabidopsis thaliana [2]; [12]
  Dead: 0 per 100 seeds
  Inter: 15 per 100 seeds
Arabidopsis thaliana [2]; concentration 5.0 (mM), MS phytagar, 10 days
  Healthy: 85 per 100 seeds
Arabidopsis thaliana [2]; concentration 10 (mM), 10 days
  Dead: 0 per 100 seeds
  Inter: 32 per 100 seeds
Arabidopsis thaliana [2]; concentration 10 (mM), MS phytagar, 10 days
  Healthy: 65 per 100 seeds
Arabidopsis thaliana [2]; [13]
  Dead: 0 per 100 seeds
  Inter: 85 per 100 seeds
Arabidopsis thaliana [2]; concentration 12.5 (mM), MS phytagar, 10 days
  Healthy: 0 per 100 seeds
Arabidopsis thaliana [2]; concentration 25 (mM), 10 days
  Dead: 0 per 100 seeds
  Inter: 100 per 100 seeds
Arabidopsis thaliana [2]; concentration 25 (mM), MS phytagar, 10 days
  Healthy: 0 per 100 seeds
Arabidopsis thaliana [2]; concentration 50 (mM), 10 days
  Dead: 100 per 100 seeds
  Inter: 0 per 100 seeds
Arabidopsis thaliana [2]; concentration 50 (mM), MS phytagar, 10 days
  Healthy: 0 per 100 seeds
Arabidopsis thaliana [2]; continuous culture, Arabidopsis seeds
  concentration at which toxicity occurs: 10 mM
H36pCAR-OF cell line
  MI and/or shifting of the polynucleotide tract in the pCAR-OF reporter (β-galactosidase positive cells): shifting the pCAR-OF reporter plasmid
[3]
  metabolites formed: converted to 9-Hydroxymethyl-10-methylanthracene (9-OHMeMA) and 9,10-dihydroxymethyl-anthracene (9,10-DiOHMeA)
Human HEK293 cells [4]; 14 to 17 days, PCR and 12% PAGE
  BAT26 alleles (microsatellite instability): showed the presence of an altered allele
Human HEK293 cells [4]; five clones sequenced, control homozygous 26nt polyA
  BAT26 polyA repeat length by sequence analysis: multiple alleles ranging from the wild-type with 26 polyA repeat to shorter alleles (24 polyA repeat) and larger alleles (28 polyA repeat)
Human HEK293 cells [5]
  toxicity: non-toxic
Arabidopsis thaliana [6]; offspring at day 10 of plants grown from seeds plated in 2mM DMA
  phenotypically distinct plants: 7 out of 118
[7]
  mutagenicity: acts as a potent weak mutagen

## Cc1c2ccccc2c(C)c2c1ccc1ccccc12 [7,12-dimethylbenz[a]anthracene]
[8]
  effect on MMR activity: MMR activity might have been blocked

## Nc1ncnc2c1ncn2[C@@H]1O[C@H](COP(=O)(O)OP(=O)(O)OP(O)(O)=S)[C@@H](O)[C@H]1O [ATP[gamma]S]
MMR activity
  effect on MMR activity: block the MMR activity

## c1ccc2c(c1)cc1ccc3cccc4ccc2c1c34 [benzo [a]pyrene]
[8]
  effect on MMR activity: MMR activity might have been blocked

## CCOS(C)(=O)=O [EMS, ethyl methanesulfonate]
[1]
  blue subclones (GUS activity) on YPD-ZEO-X-GLU plates: none are seen
Arabidopsis thaliana [2]; Arabidopsis thaliana, in vivo, 10 days
  concentration at which toxicity occurs: 250 µm
Arabidopsis thaliana [2]; [14]
  Healthy: 100 per 100 cells
  Inter: 0 per 100 cells
Arabidopsis thaliana [2]; [15]
  Healthy: 45 per 100 cells
  Inter: 54 per 100 cells
Arabidopsis thaliana [2]; [16]
  Healthy: 25 per 100 cells
  Inter: 75 per 100 cells
Arabidopsis thaliana [2]; [17]
  Healthy: 0 per 100 cells
  Inter: 0 per 100 cells
Arabidopsis thaliana [2]; [18]
  Healthy: 0 per 100 cells
  Inter: 0 per 100 cells
Arabidopsis thaliana [2]; [19]
  Healthy: 0 per 100 cells
  Inter: 0 per 100 cells
Arabidopsis thaliana [2]; [20]
  Healthy: 0 per 100 cells
  Inter: 0 per 100 cells
Arabidopsis thaliana [2]; [21]
  Healthy: 0 per 100 cells
  Inter: 0 per 100 cells
Arabidopsis thaliana [2]; [22]
  Healthy: 0 per 100 cells
  Inter: 0 per 100 cells
H36pCAR-OF cell line
  MI and/or shifting of the polynucleotide tract in the pCAR-OF reporter (β-galactosidase positive cells): did not result in MI
Arabidopsis thaliana [6]; 150 offspring at day 10 of plants grown from seeds plated in 250 µM EMS
  phenotypically distinct plants: no phenotypic difference was observed

## Nc1ncnc2c1ncn2[C@@H]1O[C@H](COP(=O)(O)OP(=O)(O)NP(=O)(O)O)[C@@H](O)[C@H]1O [AMP-PNP]
MMR activity
  effect on MMR activity: block the MMR activity

## COc1ccc2nc3cc(Cl)ccc3c(NCCCNCCCl)c2c1 [ICR191]
MMR defective cell lines
  mutation rates in MMR defective cell lines: produce enhanced mutation rates in already MMR defective cell lines
